Assay [1] relates to Apc/K-Ras intestinal organoids. Kind of assay: Growth and differentiation of Apc/K-Ras intestinal organoids. Type of assay: cell-based, mouse. On the procedure: Intestinal crypts were isolated from Apc/K-Ras animals bearing Apc^1638N and villin-driven K-Ras^G12V alleles with slight modifications[36] of a previously described method. Briefly, crypts were isolated and purified, embedded in 50 μl matrigel drops (Corning, 356231) and overlaid with 500 μl organoid medium Advanced DMEM/F12 (Life Technologies, 11320-082) containing 2 mM GlutaMAX (Life Technologies, 35050-061), 10 mM HEPES buffer (Sigma, 83264-100ML-F), 0.5 U/ml Penicillin/Streptomycin (Life Technologies, 15070-063), N2 (Life Technologies, 17502-048), B27 (Life Technologies, 12587-010)]. Organoids were expanded for 5 days in growth factor supplemented medium containing 50 ng/ml mEGF (Life Technologies, PMG8041), 100 ng/ml mNoggin (Peprotech, 250–38) and 500 ng/ml hRSPO1 (R&D, 4645-RS-025). EGF and R-spondin were subsequently removed to select for organoids that had lost the wild-type Apc copy. The medium was changed every 2 days. Established mutant lines were passaged every four days by mechanical disruption with a bent P1000 pipette tip.
(§1) 34 SUPPLEMENTARY MATERIALS AND METHODS
(§2) 36 Antibodies and chemicals - The following antibodies were used for Western blot:
(§3) 37 Rabbit monoclonal antibodies to CDK1-pThr14 (#2543), CDK1-pTyr15 (#9111), Histone
(§4) 39 Technology (Beverly, MA, USA). Mouse monoclonal antibodies to CDC25A (F-6, sc-
(§5) 41 from Santa Cruz Biotechnology (Santa Cruz, CA, USA). The mouse monoclonal
(§6) 42 antibody MPM2 (05-368) was from Upstate (Lake Placid, NY, USA). The mouse
(§7) 43 monoclonal antibody to the HA tag (HA.11, MMS-101P) was from BioLegend (S. Diego,
(§8) 44 CA, USA). The rabbit polyclonal antibody to PARP-1 (#227244) was obtained from
(§9) 45 Abcam. HRP-conjugated anti-mouse and anti-rabbit secondary antibodies were obtained
(§10) 46 from GE-Healthcare (Otelfingen, Switzerland). HRP-conjugated IgG-k-BP was
(§11) 47 purchased from Santa Cruz Biotechnology (Santa Cruz, CA, USA).
(§12) 48 The following antibodies were used for immunofluorescence on a Zeiss LSM 710
(§13) 49 confocal microscope: mouse monoclonal to beta-catenin (Cl. 14, BD transduction Lab.),
50 rabbit polyclonal to lysozyme (A0099, Dako). […]

For a further assay, the target named is T1, CDC25C (Homo sapiens, UniProt P30307).
T1 construct: GST (pGEX vector) (N); made in house; host or cells: E. coli BL21
T1 sequence (P30307 whole entry): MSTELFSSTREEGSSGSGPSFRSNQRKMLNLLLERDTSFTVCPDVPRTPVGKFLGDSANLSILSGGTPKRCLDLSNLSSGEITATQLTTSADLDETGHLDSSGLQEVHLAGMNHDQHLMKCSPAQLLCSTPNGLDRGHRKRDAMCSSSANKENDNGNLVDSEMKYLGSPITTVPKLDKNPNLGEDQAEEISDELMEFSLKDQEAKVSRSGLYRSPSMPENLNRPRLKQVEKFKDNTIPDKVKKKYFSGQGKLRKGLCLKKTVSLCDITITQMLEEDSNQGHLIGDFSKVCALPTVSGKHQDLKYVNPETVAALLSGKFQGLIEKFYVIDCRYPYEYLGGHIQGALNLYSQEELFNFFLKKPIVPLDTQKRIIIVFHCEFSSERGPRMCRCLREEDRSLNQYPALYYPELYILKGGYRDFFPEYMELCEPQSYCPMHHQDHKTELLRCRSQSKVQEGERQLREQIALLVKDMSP
Kind of assay: Enzymatic assay (OMFP substrate) on recombinant CDC25C. The format is biochemical. As to conditions: mixed-model inhibition equation.
From the text: as §1, §2, §3, §4, §5, §6, §7, §8, §9, §10, §11, §12, §13
(§14) 50 rabbit polyclonal to lysozyme (A0099, Dako). Secondary antibodies were: Alexa 488 […]
(§15) 70 V-shaped 96 well plates and read at defined intervals on a Molecular Devices
(§16) 71 SpectraMax microplate reader (ex: 490 nm / em: 525 nm). […]
(§17) 72 calculated from Lineweaver-Burk double-reciprocal plots of the data were obtained using […]
(§18) 88 assessed as described 4. Data were plotted with Prism 7® and analyzed by non-linear […]

For a further assay, the target named is T2, CDC25B (Homo sapiens, UniProt P30305).
T2 construct: GST (pGEX vector) (N); made in house; host or cells: E. coli BL21
T2 sequence (P30305 whole entry): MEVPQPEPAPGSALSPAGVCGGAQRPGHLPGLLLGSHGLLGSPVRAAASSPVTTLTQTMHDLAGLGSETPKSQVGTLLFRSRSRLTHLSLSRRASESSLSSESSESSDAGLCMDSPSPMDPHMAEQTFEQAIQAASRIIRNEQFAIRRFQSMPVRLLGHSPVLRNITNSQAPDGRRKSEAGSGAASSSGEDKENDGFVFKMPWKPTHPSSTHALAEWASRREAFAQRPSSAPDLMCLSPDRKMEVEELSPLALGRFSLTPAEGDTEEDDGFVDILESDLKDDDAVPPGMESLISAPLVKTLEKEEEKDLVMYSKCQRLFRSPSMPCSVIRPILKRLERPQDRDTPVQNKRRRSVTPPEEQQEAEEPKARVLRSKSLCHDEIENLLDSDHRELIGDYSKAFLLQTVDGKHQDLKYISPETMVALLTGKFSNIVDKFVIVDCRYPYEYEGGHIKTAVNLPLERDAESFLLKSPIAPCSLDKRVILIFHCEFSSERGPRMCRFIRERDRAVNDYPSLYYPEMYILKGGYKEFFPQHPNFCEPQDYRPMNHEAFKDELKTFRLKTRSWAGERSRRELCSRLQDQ
Kind of assay: Enzymatic assay (OMFP substrate) on recombinant CDC25B. The format is biochemical. As to conditions: mixed-model inhibition equation.
From the text: as §1, §2, §3, §4, §5, §6, §7, §8, §9, §10, §11, §12, §13, §14, §15, §16, §17, §18

SMILES strings stand for the structures.

On to `O=C1C(c2ccc(O)cc2O)=CC(=O)c2c(O)cccc21` [UPD-176, 5-hydroxy-2-(2,4-dihydroxyphenyl)naphthalene-1,4-dione], for which the “expression of lysozyme (differentiation marker), confocal immunofluorescence” value in assay [1] (5 μM) is listed as “augmented expression of lysozyme”. For the same molecule, in assay [1] (5 μM, 48 h), the organoid morphology result is given as “growing spheroids partially invaginated”. Also, the organoid death entry in assay [1] (higher doses (data not shown)) is reported as “massive death”.

In the case of `COc1cccc(SC2=CC(=O)c3cccc(O)c3C2=O)c1` [UPD-795, 2-(3-methoxyphenylthio)-8-hydroxynaphthalene-1,4-dione], the figures for the Ki at CDC25C and on CDC25B were 850 ± 300 nM and 440 ± 100 nM, respectively.

Broadly, the Ki is a measure of affinity in units of concentration, obtained from inhibition or displacement.

Values taken from publication PMC6362118, “Pharmacophore-guided discovery of CDC25 inhibitors causing cell cycle arrest and tumor regression” (Scientific Reports, 2019).
